Experimental data reported in article PMC8717171 (Saudi Journal of Biological Sciences, 2021).
≈ marks a conversion by molar mass, not a printed value. Where “and” joins values, the source holds several entries; their conditions need not be identical. Identical values can stand only once. Like-named read-outs stand apart in the source and are kept apart here.

How the values were obtained:
Swiss-albino mice = conditions: mouse, in vivo, po; for Reaction time: 25 mg/kg
[1] = Antioxidant activity, DPPH free radical scavenging; format: biochemical; conditions: absorbance at 517 nm
microbial strains = test: Antimicrobial disc diffusion, all test strains together; format: cell-based
rat hind paw oedema = test: Anti-inflammatory activity, carrageenan-induced rat hind paw oedema; format: in vivo, Sprague Dawley rat; conditions: test compounds 100 mg/kg; for Mean paw edema (volume in ml) ± SEM: n = 5
mice = test: Peripheral anti-nociception, acetic acid-induced writhing; format: in vivo, Mus musculus; conditions: for Number of Writhing (Mean ± SEM): counted for 15 min, n = 5
Vibrio mimicus = test: Disc diffusion; format: cell-based; conditions: standard Ciprofloxacin 5 µg/disc
Saccharomyces cerevisiae = test: Disc diffusion; format: cell-based; conditions: standard Ciprofloxacin 5 µg/disc
Bacillus megaterium = test: Disc diffusion; format: cell-based; conditions: standard Ciprofloxacin 5 µg/disc
Shigella dysenteriae = test: Disc diffusion; format: cell-based; conditions: standard Ciprofloxacin 5 µg/disc
Bacillus subtilis = test: Disc diffusion; format: cell-based; conditions: standard Ciprofloxacin 5 µg/disc
Salmonella typhi = test: Disc diffusion; format: cell-based; conditions: standard Ciprofloxacin 5 µg/disc
Salmonella paratyphi = test: Disc diffusion; format: cell-based; conditions: standard Ciprofloxacin 5 µg/disc
Staphylococcus aureus = test: Disc diffusion; format: cell-based; conditions: standard Ciprofloxacin 5 µg/disc
Vibrio parahaemolyticus = test: Disc diffusion; format: cell-based; conditions: standard Ciprofloxacin 5 µg/disc
[2] = test system: non-enzymatic lipid peroxidation in rat brain homogenate; test: In-vitro lipid peroxidation inhibition; conditions: Fe2+-ascorbate
Pseudomonas aeruginosa = test: Disc diffusion; format: cell-based; conditions: standard Ciprofloxacin 5 µg/disc
Escherichia coli = test: Disc diffusion; format: cell-based; conditions: standard Ciprofloxacin 5 µg/disc
Shigella boydii = test: Disc diffusion; format: cell-based; conditions: standard Ciprofloxacin 5 µg/disc
Aspergillus niger = test: Disc diffusion; format: cell-based; conditions: standard Ciprofloxacin 5 µg/disc
Candida albicans = test: Disc diffusion; format: cell-based; conditions: standard Ciprofloxacin 5 µg/disc
Bacillus cereus = test: Disc diffusion; format: cell-based; conditions: standard Ciprofloxacin 5 µg/disc
Sarcina lutea = test: Disc diffusion; format: cell-based; conditions: standard Ciprofloxacin 5 µg/disc
acetylcholinesterase = molecular target: T1, acetylcholinesterase (Rattus norvegicus, UniProt P37136); test: In-vitro anti-acetylcholinesterase activity; format: biochemical
T1 sequence (P37136 32-614): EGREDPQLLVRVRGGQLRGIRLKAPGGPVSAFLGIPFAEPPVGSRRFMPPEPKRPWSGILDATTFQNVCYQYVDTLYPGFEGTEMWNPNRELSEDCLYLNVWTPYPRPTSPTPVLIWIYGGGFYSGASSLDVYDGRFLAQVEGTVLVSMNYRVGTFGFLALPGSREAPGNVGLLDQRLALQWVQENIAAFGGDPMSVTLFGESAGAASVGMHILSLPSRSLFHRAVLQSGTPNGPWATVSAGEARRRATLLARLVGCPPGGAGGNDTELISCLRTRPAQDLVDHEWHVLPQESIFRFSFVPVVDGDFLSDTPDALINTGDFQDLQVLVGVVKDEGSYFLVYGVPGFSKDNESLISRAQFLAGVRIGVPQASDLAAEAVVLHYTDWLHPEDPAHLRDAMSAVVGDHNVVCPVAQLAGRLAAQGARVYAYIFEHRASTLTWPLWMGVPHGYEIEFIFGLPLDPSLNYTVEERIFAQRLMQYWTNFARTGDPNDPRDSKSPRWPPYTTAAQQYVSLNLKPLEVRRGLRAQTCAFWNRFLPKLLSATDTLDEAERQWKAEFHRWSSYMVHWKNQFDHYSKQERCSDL

butyrylcholinesterase = butyrylcholinesterase (Rattus norvegicus, UniProt Q9JKC1); test: In-vitro anti-butyrylcholinesterase activity; format: biochemical
butyrylcholinesterase, sequence (Q9JKC1 24-597): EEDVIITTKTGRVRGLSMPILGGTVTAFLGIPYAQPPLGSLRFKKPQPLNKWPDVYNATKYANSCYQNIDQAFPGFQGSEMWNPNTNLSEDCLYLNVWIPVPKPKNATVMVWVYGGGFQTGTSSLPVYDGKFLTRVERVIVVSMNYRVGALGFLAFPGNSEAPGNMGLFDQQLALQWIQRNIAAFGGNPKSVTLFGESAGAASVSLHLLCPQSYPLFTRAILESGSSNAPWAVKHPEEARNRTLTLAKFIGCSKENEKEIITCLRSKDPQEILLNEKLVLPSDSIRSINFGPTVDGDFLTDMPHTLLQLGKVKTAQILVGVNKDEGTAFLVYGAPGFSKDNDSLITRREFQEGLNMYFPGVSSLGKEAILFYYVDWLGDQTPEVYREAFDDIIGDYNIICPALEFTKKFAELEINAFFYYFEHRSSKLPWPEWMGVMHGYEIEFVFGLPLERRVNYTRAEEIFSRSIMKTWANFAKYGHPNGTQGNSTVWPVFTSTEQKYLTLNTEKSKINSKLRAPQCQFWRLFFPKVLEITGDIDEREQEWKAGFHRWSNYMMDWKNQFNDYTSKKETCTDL

SMILES	IC50 (antioxidant activity, DPPH scavenging) [1]	antimicrobial activity (in words) (microbial strains)	% Paw edema inhibition (rat hind paw oedema; 1st hour)	Mean paw edema (volume in ml) ± SEM (rat hind paw oedema; 1st hour)	% Paw edema inhibition (rat hind paw oedema; 2nd hour)	Mean paw edema (volume in ml) ± SEM (rat hind paw oedema; 2nd hour)	% Paw edema inhibition (rat hind paw oedema; 3rd hour)	Mean paw edema (volume in ml) ± SEM (rat hind paw oedema; 3rd hour)	% Paw edema inhibition (rat hind paw oedema; 4th hour)	Mean paw edema (volume in ml) ± SEM (rat hind paw oedema; 4th hour)	% of Inhibition of Writhing (mice; 25 mg/kg)	Number of Writhing (Mean ± SEM) (mice; 25 mg/kg)	% of Inhibition of Writhing (mice; 50 mg/kg)	Number of Writhing (Mean ± SEM) (mice; 50 mg/kg)	IC50 (lipid peroxidation inhibition) [2]	IC50 (acetylcholinesterase)	further results
COc1ccc(Cn2c(-c3ccc(OC)cc3)nc3ccccc32)cc1 [Compound 3c, 1-(4-methoxybenzyl)-2-(4-methoxyphenyl)-1H-benzimidazole]	634.22 µg/mL (≈ 1840 µM)	did not show any antimicrobial activity	35.59%	0.758 ± 0.035 mL	35.25%	0.79 ± 0.043 mL	37.40%	0.82 ± 0.022 mL	37.59%	0.88 ± 0.046 mL	54.10%	12.3 ± 0.831	42.54%	15.4 ± 0.697			Reaction time (Swiss-albino mice): 9.8 ± 0.86 and 10.2 ± 0.86 and 10.6 ± 0.68 and 11.8 ± 0.66; % Elongation value (Swiss-albino mice; 50 mg/kg): 42.86% and 44.19% and 50% and 44.23%
Clc1ccc(-c2nc3ccccc3[nH]2)cc1 [Compound 4, 2-(4-chlorophenyl)-1H-benzimidazole]	114.18 µg/mL (≈ 499 µM)		28.81%	0.838 ± 0.051 mL	27.87%	0.88 ± 0.027 mL	29.77%	0.92 ± 0.017 mL	36.88%	0.89 ± 0.033 mL	2.99%	26.0 ± 1.001	13.81%	23.1 ± 0.843	98.55 µg/mL (≈ 431 µM)		Diameter of zone of inhibition (mm) (Vibrio mimicus): 0 mm; Diameter of zone of inhibition (mm) (Saccharomyces cerevisiae): 9 mm; Diameter of zone of inhibition (mm) (Bacillus megaterium): 9 mm; Diameter of zone of inhibition (mm) (Shigella dysenteriae): 8 mm; Diameter of zone of inhibition (mm) (Bacillus subtilis): 9 mm; Reaction time (Swiss-albino mice): 9.4 ± 0.93 and 8.8 ± 1.24 and 10.6 ± 0.68 and 12.6 ± 0.93; Diameter of zone of inhibition (mm) (Salmonella typhi): 9 mm; Diameter of zone of inhibition (mm) (Salmonella paratyphi): 0 mm; Diameter of zone of inhibition (mm) (Staphylococcus aureus): 0 mm; Diameter of zone of inhibition (mm) (Vibrio parahaemolyticus): 7 mm; Diameter of zone of inhibition (mm) (Pseudomonas aeruginosa): 8 mm; Diameter of zone of inhibition (mm) (Escherichia coli): 10 mm; Diameter of zone of inhibition (mm) (Shigella boydii): 9 mm; Diameter of zone of inhibition (mm) (Aspergillus niger): 10 mm; Diameter of zone of inhibition (mm) (Candida albicans): 0 mm; peripheral analgesic activity (in words) (mice; 25 mg/kg and 50 mg/kg): did not show any peripheral analgesic activity; Diameter of zone of inhibition (mm) (Bacillus cereus): 7 mm; Diameter of zone of inhibition (mm) (Sarcina lutea): 7 mm
O=C(O)Cc1ccccc1Nc1c(Cl)cccc1Cl [Diclofenac sodium, diclofenac sodium, reference compound]			23.73%		31.15%		38.93%		45.39%								% of Inhibition of Writhing (mice; standard diclofenac sodium, dose column 0.1 ml/10 g (method: 25 mg/kg)): 91.79%
Oc1ccc(Cn2c(-c3ccc(O)cc3)nc3ccccc32)cc1 [Compound 3a, 1-(4-hydroxybenzyl)-2-(4-hydroxyphenyl)-1H-benzimidazole]	16.73 µg/mL (≈ 52.9 µM)	did not show any antimicrobial activity	34.75%	0.768 ± 0.0575 mL	36.07%	0.78 ± 0.023 mL	38.93%	0.80 ± 0.043 mL	37.59%	0.88 ± 0.034 mL	49.25%	13.6 ± 0.430	29.10%	19.0 ± 1.649	75.53 µg/mL (≈ 239 µM)	231 µM	IC50 (butyrylcholinesterase): 49.1 µM
CN1CC[C@]23c4c5ccc(O)c4O[C@H]2[C@@H](O)C=C[C@H]3[C@H]1C5 [morphine, Morphine, reference compound]																	% Elongation value (Swiss-albino mice): 48.08% and 82.5%
O.Oc1cc(O)c2c(c1)O[C@H](c1ccc(O)c(O)c1)[C@@H](O)C2 [Catechin, reference compound]															59.36 µg/mL		
Cc1cc(C(C)(C)C)c(O)c(C(C)(C)C)c1 [BHT, tert-butyl-1-hydroxytoluene, reference compound]	14.44 µg/mL (≈ 65.5 µM)																
c1ccc(COCc2nc3ccccc3[nH]2)cc1 [Compound 6, 2-((benzyloxy)-methyl)-1H-benzimidazole]	579.19 µg/mL (≈ 2430 µM)		22.88%	0.906 ± 0.047 mL	23.77%	0.93 ± 0.028 mL	25.19%	0.98 ± 0.018 mL	31.91%	0.96 ± 0.039 mL	37.69%	16.7 ± 0.889	55.60%	11.9 ± 0.458		124 µM	Diameter of zone of inhibition (mm) (Vibrio mimicus): 9 mm; Diameter of zone of inhibition (mm) (Saccharomyces cerevisiae): 7 mm; Diameter of zone of inhibition (mm) (Bacillus megaterium): 7 mm; Diameter of zone of inhibition (mm) (Shigella dysenteriae): 0 mm; Diameter of zone of inhibition (mm) (Bacillus subtilis): 10 mm; Diameter of zone of inhibition (mm) (Salmonella typhi): 8 mm; Diameter of zone of inhibition (mm) (Salmonella paratyphi): 8 mm; Diameter of zone of inhibition (mm) (Staphylococcus aureus): 7 mm; Diameter of zone of inhibition (mm) (Vibrio parahaemolyticus): 10 mm; Diameter of zone of inhibition (mm) (Pseudomonas aeruginosa): 7 mm; Diameter of zone of inhibition (mm) (Escherichia coli): 0 mm; Diameter of zone of inhibition (mm) (Shigella boydii): 7 mm; Diameter of zone of inhibition (mm) (Aspergillus niger): 0 mm; Diameter of zone of inhibition (mm) (Candida albicans): 0 mm; Diameter of zone of inhibition (mm) (Bacillus cereus): 8 mm; Diameter of zone of inhibition (mm) (Sarcina lutea): 7 mm
Clc1ccc(Cn2c(-c3ccc(Cl)cc3)nc3ccccc32)cc1 [Compound 3b, 1-(4-chlorobenzyl)-2-(4-chlorophenyl)-1H-benzimidazole]		did not show any antimicrobial activity	38.98%	0.724 ± 0.057 mL	40.16%	0.73 ± 0.029 mL	41.98%	0.76 ± 0.048 mL	44.68%	0.78 ± 0.056 mL	26.87%	19.6 ± 0.797	13.43%	23.2 ± 0.464		187 µM	IC50 (butyrylcholinesterase): 66.3 µM
